Values of other authors in patent publication US20070286875A1 (Morton Grove Pharmaceuticals, Inc., priority 2006, published 2007).

Columns and labels:
[1] = 10 mg once daily with erythromycin, cimetidine, ketoconazole

binding to peripheral versus central nervous system H1-receptors (H1-receptors): preferential binding to peripheral
SMILES: CCOC(=O)N1CCC(=C2c3ccc(Cl)cc3CCc3cccnc32)CC1 [loratadine, ethyl 4-(8-chloro-5,6-dihydro-11H-benzo[5,6]cyclohepta[1,2-b]pyridin-11-ylidene)-1-piperidinecarboxylate]
changes in safety profile on co-administration [1]: no clinically relevant changes
